Among the data in US9622970B2, “Pharmaceutical composition containing lutein and antioxidant for treating and preventing human disease” (priority 2014, dated 2017) are Plasma lutein concentration values, retold here.

The nature of the data set: Plasma lutein concentration in chickens fed lutein or preparation of lutein (HPLC). Type of data set: in vivo, chicken. The settings on record: diet with 15 mg lutein/kg for 15 days. The procedure:
Chickens (50), weighing 1.0±0.2 kg, were randomly divided into two treatments, with 25 chickens each. Chickens were individually housed in cages measuring 0.2×0.2 m, and were submitted to a lighting program of 16 h light/day. Chickens were kept under a temperature of 20±5° C. Feed and water were supplied ad libitum.
After two weeks of washout period, when the chickens were fed lutein or preparation of lutein with basal diet, two groups were fed the basal diets lutein or preparation of lutein for a period of 15 days. Lutein contents were determined using a HPLC method. The basal diet contained 0.5 mg lutein/kg. The two diets were formulated to contain the same level of 15 mg lutein/kg. All feeds were prepared every day.
Morning blood samples were taken on day 0, and days 3, 6, 12 for lutein analysis. The number of eggs laid by each chicken was counted during the experiment. Blood samples were obtained by puncture of the vena ulnaris. One milliliter of blood was sampled from each chicken. The plasma was separated by centrifugation. Plasma lutein concentrations have been detected. […]
A single gradient-type HPLC system was used for the parallel analysis of plasma concentration of lutein. The HPLC systems consisted of two solvent-delivery systems detected with a 436-nm and a 280-nm filter. The samples were analyzed by HPLC method. Lutein was quantified by determining the peak area at 445 nm. […]

Molecules are shown by their SMILES.

In turn, `CC1=C[C@H](O)CC(C)(C)[C@H]1/C=C/C(C)=C/C=C/C(C)=C/C=C/C=C(C)/C=C/C=C(C)/C=C/C1=C(C)C[C@@H](O)CC1(C)C` [Lutein, lutein] registered a Plasma lutein concentration of 1.20 ± 0.10 μg lutein/ml.
